In PMC12589732, “Chemical composition and biological effects of Lavandula angustifolia Mill., essential oils” (AMB Express, 2025):

Target: T1, Tyrosinase
T1 construct: gene PPO3
Test: L-DOPA oxidation, […] nm
Assay type: biochemical
Details: substrate L-DOPA 5 mM stock; 50 mM phosphate pH 6.5; 37 °C; 10 min preincubation

- Dermatoprotective: 242.99 ± 2.67 µg/mL
SMILES: O=c1c(O)c(-c2ccc(O)c(O)c2)oc2cc(O)cc(O)c12 [Quercetin]
